Measurements from patent US20150328322A1, “DRUG DELIVERY VEHICLES” (priority 2012, published 2015).

What was measured:
[1] = target: T1, MLD capsid II (Escherichia phage T7, UniProt P03728+P19726); test: AUC-BD in a Nycodenz density gradient after pre-centrifugation incubation; assay type: physicochemical
T1 construct: These latter capsid shells are produced during DNA packaging
Experimental: By use of recent technical advances, both densities and their pressure dependence have been explored by use of analytical buoyant density equilibrium sedimentation (AUC-BD) performed with a Nycodenz density gradient and a fluorescence detector. The data were analyzed with the UltraScan-III software (Demeler et al., (2012) UltraScan-III, a comprehensive analysis software for analytical ultracentrifugation experiments. The University of Texas Health Science Center at San Antonio, Dept. of Biochemistry). […] The sources of the peak sharpness are small diffusion coefficient and uniform density of phage and phage capsids. […] Fluorescence detection provides picomolar sensitivity and several orders of magnitude of dynamic range. AUC-BD is also efficient in that (1) no gradient fractionation and analysis of separate fractions is needed, (2) sample concentrations in the picomolar range are used, over 2 orders of magnitude less than what is needed for other procedures of detection, (3) 14 samples can be simultaneously run and (4) pressure and temperature dependences are determined with one set of samples by progressively changing the speed and temperature of centrifugation.
The details of the AUC-BD are the following. […] If the particle is uniform in density and its diffusion is low, then a sharp peak of fluorescence will form. […]

[2] = target: T2, T7 MLD capsid II (Escherichia phage T7, UniProt P03728+P19726); conditions: 25° C.; FIG. 5 adapted from Khan et al. 1992; cited from earlier work
T2 construct: These latter capsid shells are produced during DNA packaging
T2 sequence (P19726 whole entry): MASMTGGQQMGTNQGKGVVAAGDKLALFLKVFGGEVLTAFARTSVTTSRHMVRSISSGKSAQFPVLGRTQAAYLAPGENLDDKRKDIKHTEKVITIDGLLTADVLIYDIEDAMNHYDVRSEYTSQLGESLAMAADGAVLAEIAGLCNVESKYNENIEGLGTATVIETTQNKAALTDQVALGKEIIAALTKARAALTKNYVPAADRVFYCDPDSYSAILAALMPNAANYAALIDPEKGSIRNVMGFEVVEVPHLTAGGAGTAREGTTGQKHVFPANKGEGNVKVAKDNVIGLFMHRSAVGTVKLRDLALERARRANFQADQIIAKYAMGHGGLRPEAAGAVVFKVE
T2 sequence (P03728 whole entry): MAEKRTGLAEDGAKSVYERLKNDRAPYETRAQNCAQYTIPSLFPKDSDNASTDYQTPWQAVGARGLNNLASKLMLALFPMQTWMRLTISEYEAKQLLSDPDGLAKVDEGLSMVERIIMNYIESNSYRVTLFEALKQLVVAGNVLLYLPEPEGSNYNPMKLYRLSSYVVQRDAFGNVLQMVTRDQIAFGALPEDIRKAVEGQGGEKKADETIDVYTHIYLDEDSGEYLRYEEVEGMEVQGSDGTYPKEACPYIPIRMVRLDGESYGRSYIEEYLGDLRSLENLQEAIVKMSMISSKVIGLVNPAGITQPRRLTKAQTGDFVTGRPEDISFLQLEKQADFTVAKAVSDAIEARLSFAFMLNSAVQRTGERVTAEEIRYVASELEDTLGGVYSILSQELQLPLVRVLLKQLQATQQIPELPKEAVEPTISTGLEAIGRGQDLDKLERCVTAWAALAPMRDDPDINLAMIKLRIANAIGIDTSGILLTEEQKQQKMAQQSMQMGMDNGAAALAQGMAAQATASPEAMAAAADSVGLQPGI

[3] = target: T3, MHD capsid II (Escherichia phage T7, UniProt P19726); test: Fluorescence (I) vs. time binding of bis-ANS to connector-free capsid; assay type: physicochemical; conditions: capsid II particle without connector
T3 construct: These latter capsid shells are produced during DNA packaging; made in house; host or cells: phage-infected E. coli (inferred)
T3 sequence (P19726 whole entry): as the sequence (P19726 whole entry) above
Description: For measuring the rate of loading of a compound in MLD capsid II, an alternative to AUC-BD is usually needed for reasons of efficiency of time and cost. Total fluorescence (/) has been used to determine the rate of loading for bis-ANS, because bis-ANS undergoes fluorescence enhancement when it binds to hydrophobic areas of proteins, including several internal T7 proteins (gps8, gps15, gps16)—the T7 proteins bound were identified by ultraviolet light-induced, covalent cross-linking to bis-ANS after binding. The value of I vs. time at 25° C. is plotted in FIG. 5 (adapted from Khan et al., Biophys. J. 1992, 63:1286-1292), during incubation of bis-ANS with T7 MLD capsid II and also the mature phage T7 and a T7 deletion mutant, C5-LG3. Binding to the exterior of the capsid was so rapid that it was complete before the first measurement. […] Thus, the loading rate is simply observed by measuring I vs. time and subtracting the initial signal. […] MLD capsid II-bound bis-ANS fluorescence is quenched by incubation with ethidium cation.

[4] = target: T1, MLD capsid II; test: Diffusion-driven permeation of dyes into internal cavity of MLD capsid II; assay type: physicochemical; conditions: entry through the gp8 portal
Description: MLD Capsid II. […] Thus, bis-ANS, ethidium, and presumably other similarly sized compounds enter MLD capsid II through the gp8 portal (see FIG. 1a).

[5] = target: T1, MLD capsid II; test: Buoyant density after incubation with sodium iothalamate; assay type: physicochemical; conditions: 25° C.; loads, but very slowly
Description: Assays for Loading. To assay for diffusion-driven loading of a compound in the cavity of MLD capsid II, the most direct method is to perform buoyant density equilibrium centrifugation in a non-ionic density gradient of either Metrizamide (mw=789) or the closely related compound, Nycodenz (mw=821). If a compound enters MLD capsid II, the density changes after loading. Most dyes and drugs would, if loaded, cause the density of MLD capsid II to increase. The reason is that most dyes and drugs are denser than water and a loaded dye or drug molecule replaces internal MLD capsid II water. The exceptionally high hydration of MLD capsid II causes the density of MLD capsid II to be extremely low, typically between 1.08 and 1.12 g/ml, decreasing with increasing centrifugation speed, i.e., with increasing pressure (unpublished observations of the laboratories of Borries Demeler and Philip Serwer).
As the temperature decreases, the loading rate is expected to decrease, eventually to zero at a critical temperature. The critical temperature is expected to decrease as the molecular weight of the compound loaded decreases. The borderline for loading MLD capsid II at 25° C. is somewhat higher than 612, based on the fact that iothalamate anion (mw =612) loads, but very slowly (>19 hours), as determined by the buoyant density after incubation with sodium iothalamate. […]

T1 sequence (P03728 whole entry): as the sequence (P03728 whole entry) above
T1 sequence (P19726 whole entry): as the sequence (P19726 whole entry) above

Compound: CC(=O)N(CC(O)CO)c1c(I)c(C(=O)NCC(O)CO)c(I)c(C(=O)NCC(O)CO)c1I (centres unmarked) [Nycodenz]
- entry into MLD capsid II ([1]; pre-centrifugation incubation at 61° C. and 68° C., conversion to high-density particle, shell intact): does enter
- entry into MLD capsid II ([1]; pre-centrifugation incubation at temperatures as high as 54° C.): does not enter MLD capsid II

Compound: O=S(=O)(O)c1cccc2c(-c3ccc(Nc4ccccc4)c4c(S(=O)(=O)O)cccc34)ccc(Nc3ccccc3)c12 [bis-ANS, 4,4′-dianilino-1,1′-binaphthyl-5,5′-disulfonic acid]
- time of bis-ANS binding to the interior (loading) [2]: several hours
- bis-ANS binding kinetics [3]: Only rapid (effectively instantaneous) binding
- diffusion into the internal cavity of MLD capsid II [4]: diffuse into the internal cavity of MLD capsid II (over hours)

Compound: CC[n+]1c(-c2ccccc2)c2cc(N)ccc2c2ccc(N)cc21 [ethidium]
- diffusion into the internal cavity of MLD capsid II [4]: diffuse into the internal cavity of MLD capsid II (over hours)

Compound: CC(=O)Nc1c(I)c(C(=O)N[C@H]2C(O)O[C@H](CO)[C@@H](O)[C@@H]2O)c(I)c(N(C)C(C)=O)c1I (some centres unmarked) [Metrizamide]
- diffusion into the internal cavity of MLD capsid II [4]: never been observed to detectably diffuse into MLD capsid II

Compound: CNC(=O)c1c(I)c(NC(C)=O)c(I)c(C(=O)O)c1I [iothalamate]
- loading time [5]: > 19 h
